Measurements taken from paper PMC6488579 (2019).
Each block holds one molecule with its values, some of them ahead of it.

Key:
[1] = test system: DEX04 (DNA, aptamer) ATATCATATGCTCCAATTACACGACGAGGGACGAGGAGTACTTGCCAACGATAACGTCGTTGGATCTGTCTGTGCCCATATTACACTTGCGATCT; assay: fluorescence bead-binding, eluted DNA; conditions: 150 nM aptamer
[2] = test system: HOC6-S-S-C6-DEX04 (DNA, aptamer) ACACGACGAGGGACGAGGAGTACTTGCCAACGATAACGTCGTTGGATCTGTCTGTGCCC; assay: electrochemical impedance, Rct change
[3] = test system: DEX01 (DNA, aptamer) ATATCATATGCTCCAATTACACCCCACGTAGTGTCACAGCACGCTTATAGTAAGTGAAGTGACGGGTTGCTGATGTGATATTACACTTGCGATCT; assay: fluorescence bead-binding saturation, eluted DNA; conditions: immobilised compound (DXN Sepharose 6β beads); binding buffer; aptamer 50-400 nM
[4] = test system: DEX03 (DNA, aptamer) ATATCATATGCTCCAATTACGCGTAGGGATGTGTAAGGTCTGTACACCTCGGTTTACTCTATGCTTCGCATATTGTCGATATTACACTTGCGATCT; assay: fluorescence bead-binding saturation, eluted DNA; conditions: immobilised compound (DXN Sepharose 6β beads); binding buffer; aptamer 50-400 nM
[5] = test system: DEX04 (DNA, aptamer) ATATCATATGCTCCAATTACACGACGAGGGACGAGGAGTACTTGCCAACGATAACGTCGTTGGATCTGTCTGTGCCCATATTACACTTGCGATCT; assay: fluorescence bead-binding saturation, eluted DNA; conditions: immobilised compound (DXN Sepharose 6β beads); binding buffer; aptamer 50-400 nM
[6] = test system: DEX10 (DNA, aptamer) ATATCATATGCTCCAATTGGACAGCTGGCCGCGAAGCGAGACACGTATAAGGTACTATACGGCTGGCATATGTATCTGATATTACACTTGCGATCT; assay: fluorescence bead-binding saturation, eluted DNA; conditions: immobilised compound (DXN Sepharose 6β beads); binding buffer; aptamer 50-400 nM
[7] = test system: DEX05 (DNA, aptamer) ATATCATATGCTCCAATTACAGGCTTGGATTAGTGTATCCAACTAGTATCGTGTATACTAGGCCCTTGCTACCCTGTGATATTACACTTGCGATCT; assay: fluorescence bead-binding saturation, eluted DNA; conditions: immobilised compound (DXN Sepharose 6β beads); aptamer up to 400 nM; NB [sic]
[8] = test system: DEX06 (DNA, aptamer) ATATCATATGCTCCAATTACACACGAAACACAAGCAGTGAGACTGCCTACGTCCGTAGTTGTGTTGAGTTTGCTCTCCATATTACACTTGCGATCT; assay: fluorescence bead-binding saturation, eluted DNA; conditions: immobilised compound (DXN Sepharose 6β beads); aptamer up to 400 nM; NB [sic]
[9] = highest tested 1 nM (below detection limit for DXN), measured in 10 mM PBS pH 7.4

binding ([1]; immobilised compound (NET beads, 5 µL, 6–14 µmol/mL)): no
binding [2, 9]: no
Compound: C#C[C@]1(O)CC[C@H]2[C@@H]3CCC4=CC(=O)CC[C@@H]4[C@H]3CC[C@@]21C

binding ([1]; immobilised compound (P4 beads, 20 µL, 4.4 nmol/mL)): no
binding [2, 9]: no
Compound: CC(=O)[C@H]1CC[C@H]2[C@@H]3CCC4=CC(=O)CC[C@]4(C)[C@H]3CC[C@]12C

binding ([2]; free DXN 50 and 100 nM, 10 mM PBS pH 7.4, 10 mM ferri/ferrocyanide): yes
KD [3]: 0.01571 µM
KD [4]: 0.07283 µM
KD [5]: 0.01835 µM
KD [6]: 0.715 µM
binding [7]: no
binding [8]: no
Compound: C[C@@H]1C[C@H]2[C@@H]3CCC4=CC(=O)C=C[C@]4(C)[C@@]3(F)[C@@H](O)C[C@]2(C)[C@@]1(O)C(=O)CO

binding ([1]; immobilised compound (E2 beads, 5 µL, 6–14 µmol/mL)): no
binding [2, 9]: no
Compound: C[C@]12CC[C@@H]3c4ccc(O)cc4CC[C@H]3[C@@H]1CC[C@@H]2O
